Measurements reported in US4480118A, “Carboxylic acid ester and an insecticidal and/or acaricidal composition containing the same” (priority 1981, dated 1984).

Legend:
Format in all cases: in vivo
[1] = test system: housefly; assay: Insecticidal activity against housefly (Filter paper bait and contact method); conditions: Musca domestica; 500 ppm, 48 hours, adult female houseflies; read-out: Mortality
Experimental: Each 20 parts of the present compounds No. 1 to No. 29, 10 parts of an emulsifier (Sorpol 3005X; trademark for Toho Chemical Co.) and 70 parts of xylene are thoroughly mixed by stirring to obtain an emulsifiable concentrate of each compound.
A piece of filter paper, 5.5 cm in diameter, was laid on the bottom of a polyethylene cup of the identical inner diameter. An emulsifiable concentrate prepared in the same manner as in Preparation Example 2 was diluted with water. To the filter paper, was added dropwise 0.7 ml of the diluted sample (500 ppm in concentration). Sucrose (30 mg) was placed on the filter paper to serve as bait. Ten adult female houseflies were released into the cup, closed with a cover, and observed for the number of dead and alive insects after 48 hours to calculate the mortality (2 replications).

[2] = test system: housefly; assay: Activity of oil spray against adult housefly (glass chamber); conditions: oil spray 0.5 ml, 10 minutes exposure; for mortality, House fly: observed on the following day, 1440 min
Experimental: (§1) 0.1 Part of each compound Nos. 10, 12, 15, 17, 18, 19, 22, 23 and 29 of this invention is dissolved in deodorized kerosene and made up to 100 parts with kerosene to obtain an oil spray.
(§2) Ten adult houseflies and ten adult female northern house mosquitos were released in a glass chamber, 70×70×70 cm in size. An oil spray preparation (0.5 ml) obtained in Preparation Example 1 was sprayed inside the chamber and the insects were exposed to the descending mist for 10 minutes, during which time the number of knocked-down insects was counted at predetermined time intervals to determine the 50% knockdown time (KT50). On the following day, the dead and alive insects were observed.

[3] = test system: northern house mosquito; assay: Activity of oil spray against adult female northern house mosquito (glass chamber); conditions: for mortality, Northern house mosquito: in vivo, 24 h; for KT50 (50% knockdown time), Northern house mosquito: oil spray 0.5 ml, 10 minutes exposure
Experimental: as §1, §2

[4] = test system: northern house mosquito; assay: Mosquito coil knockdown of adult female northern house mosquitos
Experimental: Each 0.6 g of the present compounds Nos. 10, 16 and 27 is dissolved in 20 ml of methanol and uniformly mixed with 99.4 g of a carrier for mosquito coils (a mixture of Tabu powder, pyrethrum marc and wood powder in a proportion of 3:5:1) by thorough stirring. After evaporation of methanol and addition of 150 ml of water, the mixture is thoroughly kneaded, then molded, and dried to obtain a mosquito coil.
About 50 adult female northern house mosquitos were released into a glass chamber, 70×70×70 cm, and a battery-operated small fan (diameter of rotation of the vane: 13 cm) disposed in the cabinet was operated. A mosquito coil obtained in Preparation Example 6 was ignited at both ends and placed at the center of bottom of the chamber. After 20 minutes, the number of knocked down insects was counted.

| SMILES | mortality at 500 ppm [1] | KT50 (50% knockdown time), House fly [2] | mortality, House fly [2] | mortality, Northern house mosquito [3] | KT50 (50% knockdown time), Northern house mosquito [3] | Percent knocked down insects after 20 minutes [4] |
| --- | --- | --- | --- | --- | --- | --- |
| C#CCC1=C(C)C(OC(=O)C2C(C)(C)C23Cc2ccccc2C3)CC1=O (centres unmarked) [Compound 10] | 100% | 210 s | 30% | 100% | 320 s | 94% |
| C=CCC1=C(C)C(OC(=O)C2C(C)(C)C23Cc2ccccc2C3)CC1=O (centres unmarked) [Compound 15] | 100% | 250 s | 20% | 95% | 300 s | 90% |
| C#CC(OC(=O)C1C(C)(C)C12Cc1ccc(F)cc1C2)C(C)=CCC (centres unmarked) [Compound 27] | 100% |  |  |  |  | 10% |
